Assay: (§1) The drug is tested on Z-016 corresponding to mouse gut metagenome with ENA study accession number: PRJEB37062 and ENA sample accession number: ERS12561815 for biotransformation under anaerobic condition. The drug concentrations were measured over 9 timepoints collected between 0 and 24 hours of incubation by liquid-chromatography-coupled mass spectrometry (LC–MS)
Conditions: 2 µM
Also: call rule not given here.

Row | Bacterial Biotransformation | Compound
1 | Compound NOT metabolized | CC(C)NCC(O)COc1ccc(COCCOC(C)C)cc1.CC(C)NCC(O)COc1ccc(COCCOC(C)C)cc1.O=C(O)/C=C/C(=O)O (stereo not given) [BISOPROLOL FUMARATE]
2 | Compound NOT metabolized | CC(C)(C)NC[C@H](O)COc1ccccc1C1CCCC1.CC(C)(C)NC[C@H](O)COc1ccccc1C1CCCC1.O=S(=O)(O)O [PENBUTOLOL SULFATE]

Conditions: human gut metagenome, 24 h, 2 µM

Row | Bacterial Biotransformation | Compound
3 | Compound NOT metabolized | CC(C)NCC(O)COc1ccc(COCCOC(C)C)cc1.CC(C)NCC(O)COc1ccc(COCCOC(C)C)cc1.O=C(O)/C=C/C(=O)O (stereo not given) [BISOPROLOL FUMARATE]
4 | Compound metabolized | CC(C)(C)NC[C@H](O)COc1ccccc1C1CCCC1.CC(C)(C)NC[C@H](O)COc1ccccc1C1CCCC1.O=S(=O)(O)O [PENBUTOLOL SULFATE]

Conditions: human gut metagenome, 24 h, 2 µM
Remark: another data set of the same source

Row | Bacterial Biotransformation | Compound
5 | Compound NOT metabolized | CC(C)NCC(O)COc1ccc(COCCOC(C)C)cc1.CC(C)NCC(O)COc1ccc(COCCOC(C)C)cc1.O=C(O)/C=C/C(=O)O (stereo not given) [BISOPROLOL FUMARATE]
6 | Compound metabolized | CC(C)(C)NC[C@H](O)COc1ccccc1C1CCCC1.CC(C)(C)NC[C@H](O)COc1ccccc1C1CCCC1.O=S(=O)(O)O [PENBUTOLOL SULFATE]

Conditions: human gut metagenome, 24 h, 2 µM
Remark: another data set of the same source

Row | Bacterial Biotransformation | Compound
7 | Compound metabolized | CC(C)NCC(O)COc1ccc(COCCOC(C)C)cc1.CC(C)NCC(O)COc1ccc(COCCOC(C)C)cc1.O=C(O)/C=C/C(=O)O (stereo not given) [BISOPROLOL FUMARATE]
8 | Compound metabolized | CC(C)(C)NC[C@H](O)COc1ccccc1C1CCCC1.CC(C)(C)NC[C@H](O)COc1ccccc1C1CCCC1.O=S(=O)(O)O [PENBUTOLOL SULFATE]

Assay: as §1, with “Z-019” for “Z-016”, “rat” for “mouse”, “ERS12561818” for “ERS12561815”
Conditions: 2 µM

Row | Bacterial Biotransformation | Compound
9 | Compound NOT metabolized | CC(C)NCC(O)COc1ccc(COCCOC(C)C)cc1.CC(C)NCC(O)COc1ccc(COCCOC(C)C)cc1.O=C(O)/C=C/C(=O)O (stereo not given) [BISOPROLOL FUMARATE]
10 | Compound NOT metabolized | CC(C)(C)NC[C@H](O)COc1ccccc1C1CCCC1.CC(C)(C)NC[C@H](O)COc1ccccc1C1CCCC1.O=S(=O)(O)O [PENBUTOLOL SULFATE]

Conditions: human gut metagenome, 24 h, 2 µM
Remark: another data set of the same source

Row | Bacterial Biotransformation | Compound
11 | Compound metabolized | CC(C)NCC(O)COc1ccc(COCCOC(C)C)cc1.CC(C)NCC(O)COc1ccc(COCCOC(C)C)cc1.O=C(O)/C=C/C(=O)O (stereo not given) [BISOPROLOL FUMARATE]
12 | Compound metabolized | CC(C)(C)NC[C@H](O)COc1ccccc1C1CCCC1.CC(C)(C)NC[C@H](O)COc1ccccc1C1CCCC1.O=S(=O)(O)O [PENBUTOLOL SULFATE]

Conditions: human gut metagenome, 24 h, 2 µM
Remark: another data set of the same source

Row | Bacterial Biotransformation | Compound
13 | Compound NOT metabolized | CC(C)NCC(O)COc1ccc(COCCOC(C)C)cc1.CC(C)NCC(O)COc1ccc(COCCOC(C)C)cc1.O=C(O)/C=C/C(=O)O (stereo not given) [BISOPROLOL FUMARATE]
14 | Compound metabolized | CC(C)(C)NC[C@H](O)COc1ccccc1C1CCCC1.CC(C)(C)NC[C@H](O)COc1ccccc1C1CCCC1.O=S(=O)(O)O [PENBUTOLOL SULFATE]

Assay: as §1, with “WLS-086” for “Z-016”, “human” for “mouse”, “ERS12561752” for “ERS12561815”
Conditions: 2 µM

Row | Bacterial Biotransformation | Compound
15 | Compound metabolized | CC(C)NCC(O)COc1ccc(COCCOC(C)C)cc1.CC(C)NCC(O)COc1ccc(COCCOC(C)C)cc1.O=C(O)/C=C/C(=O)O (stereo not given) [BISOPROLOL FUMARATE]
16 | Compound metabolized | CC(C)(C)NC[C@H](O)COc1ccccc1C1CCCC1.CC(C)(C)NC[C@H](O)COc1ccccc1C1CCCC1.O=S(=O)(O)O [PENBUTOLOL SULFATE]

Assay: as §1, with “Z-023” for “Z-016”, “to” for “to mouse gut”, “ERS12561822” for “ERS12561815”
Conditions: 2 µM

Row | Bacterial Biotransformation | Compound
17 | Compound metabolized | CC(C)NCC(O)COc1ccc(COCCOC(C)C)cc1.CC(C)NCC(O)COc1ccc(COCCOC(C)C)cc1.O=C(O)/C=C/C(=O)O (stereo not given) [BISOPROLOL FUMARATE]
18 | Compound metabolized | CC(C)(C)NC[C@H](O)COc1ccccc1C1CCCC1.CC(C)(C)NC[C@H](O)COc1ccccc1C1CCCC1.O=S(=O)(O)O [PENBUTOLOL SULFATE]

Assay: as §1, with “WLS-310” for “Z-016”, “human” for “mouse”, “ERS12561785” for “ERS12561815”
Conditions: 2 µM

Row | Bacterial Biotransformation | Compound
19 | Compound NOT metabolized | CC(C)NCC(O)COc1ccc(COCCOC(C)C)cc1.CC(C)NCC(O)COc1ccc(COCCOC(C)C)cc1.O=C(O)/C=C/C(=O)O (stereo not given) [BISOPROLOL FUMARATE]
20 | Compound metabolized | CC(C)(C)NC[C@H](O)COc1ccccc1C1CCCC1.CC(C)(C)NC[C@H](O)COc1ccccc1C1CCCC1.O=S(=O)(O)O [PENBUTOLOL SULFATE]

Conditions: human gut metagenome, 24 h, 2 µM
Remark: another data set of the same source

Row | Bacterial Biotransformation | Compound
21 | Compound NOT metabolized | CC(C)NCC(O)COc1ccc(COCCOC(C)C)cc1.CC(C)NCC(O)COc1ccc(COCCOC(C)C)cc1.O=C(O)/C=C/C(=O)O (stereo not given) [BISOPROLOL FUMARATE]
22 | Compound metabolized | CC(C)(C)NC[C@H](O)COc1ccccc1C1CCCC1.CC(C)(C)NC[C@H](O)COc1ccccc1C1CCCC1.O=S(=O)(O)O [PENBUTOLOL SULFATE]

Assay: as §1, with “Z-030” for “Z-016”, “ERS12561829” for “ERS12561815”
Conditions: 2 µM

Row | Bacterial Biotransformation | Compound
23 | Compound NOT metabolized | CC(C)NCC(O)COc1ccc(COCCOC(C)C)cc1.CC(C)NCC(O)COc1ccc(COCCOC(C)C)cc1.O=C(O)/C=C/C(=O)O (stereo not given) [BISOPROLOL FUMARATE]
24 | Compound NOT metabolized | CC(C)(C)NC[C@H](O)COc1ccccc1C1CCCC1.CC(C)(C)NC[C@H](O)COc1ccccc1C1CCCC1.O=S(=O)(O)O [PENBUTOLOL SULFATE]

Conditions: human gut metagenome, 24 h, 2 µM
Remark: another data set of the same source

Row | Bacterial Biotransformation | Compound
25 | Compound NOT metabolized | CC(C)NCC(O)COc1ccc(COCCOC(C)C)cc1.CC(C)NCC(O)COc1ccc(COCCOC(C)C)cc1.O=C(O)/C=C/C(=O)O (stereo not given) [BISOPROLOL FUMARATE]
26 | Compound metabolized | CC(C)(C)NC[C@H](O)COc1ccccc1C1CCCC1.CC(C)(C)NC[C@H](O)COc1ccccc1C1CCCC1.O=S(=O)(O)O [PENBUTOLOL SULFATE]

Assay: as §1, with “Z-018” for “Z-016”, “pig” for “mouse”, “ERS12561817” for “ERS12561815”
Conditions: 2 µM

Row | Bacterial Biotransformation | Compound
27 | Compound NOT metabolized | CC(C)NCC(O)COc1ccc(COCCOC(C)C)cc1.CC(C)NCC(O)COc1ccc(COCCOC(C)C)cc1.O=C(O)/C=C/C(=O)O (stereo not given) [BISOPROLOL FUMARATE]
28 | Compound metabolized | CC(C)(C)NC[C@H](O)COc1ccccc1C1CCCC1.CC(C)(C)NC[C@H](O)COc1ccccc1C1CCCC1.O=S(=O)(O)O [PENBUTOLOL SULFATE]

Conditions: human gut metagenome, 24 h, 2 µM
Remark: another data set of the same source

Row | Bacterial Biotransformation | Compound
29 | Compound NOT metabolized | CC(C)NCC(O)COc1ccc(COCCOC(C)C)cc1.CC(C)NCC(O)COc1ccc(COCCOC(C)C)cc1.O=C(O)/C=C/C(=O)O (stereo not given) [BISOPROLOL FUMARATE]
30 | Compound metabolized | CC(C)(C)NC[C@H](O)COc1ccccc1C1CCCC1.CC(C)(C)NC[C@H](O)COc1ccccc1C1CCCC1.O=S(=O)(O)O [PENBUTOLOL SULFATE]

Assay: as §1, with “Z-025” for “Z-016”, “rabbit” for “mouse”, “ERS12561824” for “ERS12561815”
Conditions: 2 µM

Row | Bacterial Biotransformation | Compound
31 | Compound metabolized | CC(C)NCC(O)COc1ccc(COCCOC(C)C)cc1.CC(C)NCC(O)COc1ccc(COCCOC(C)C)cc1.O=C(O)/C=C/C(=O)O (stereo not given) [BISOPROLOL FUMARATE]
32 | Compound NOT metabolized | CC(C)(C)NC[C@H](O)COc1ccccc1C1CCCC1.CC(C)(C)NC[C@H](O)COc1ccccc1C1CCCC1.O=S(=O)(O)O [PENBUTOLOL SULFATE]

Conditions: human gut metagenome, 24 h, 2 µM
Remark: another data set of the same source

Row | Bacterial Biotransformation | Compound
33 | Compound metabolized | CC(C)NCC(O)COc1ccc(COCCOC(C)C)cc1.CC(C)NCC(O)COc1ccc(COCCOC(C)C)cc1.O=C(O)/C=C/C(=O)O (stereo not given) [BISOPROLOL FUMARATE]
34 | Compound metabolized | CC(C)(C)NC[C@H](O)COc1ccccc1C1CCCC1.CC(C)(C)NC[C@H](O)COc1ccccc1C1CCCC1.O=S(=O)(O)O [PENBUTOLOL SULFATE]

Conditions: human gut metagenome, 24 h, 2 µM
Remark: another data set of the same source

Row | Bacterial Biotransformation | Compound
35 | Compound metabolized | CC(C)NCC(O)COc1ccc(COCCOC(C)C)cc1.CC(C)NCC(O)COc1ccc(COCCOC(C)C)cc1.O=C(O)/C=C/C(=O)O (stereo not given) [BISOPROLOL FUMARATE]
36 | Compound metabolized | CC(C)(C)NC[C@H](O)COc1ccccc1C1CCCC1.CC(C)(C)NC[C@H](O)COc1ccccc1C1CCCC1.O=S(=O)(O)O [PENBUTOLOL SULFATE]

Assay: as §1, with “Z-014” for “Z-016”, “rat” for “mouse”, “ERS12561814” for “ERS12561815”
Conditions: 2 µM

Row | Bacterial Biotransformation | Compound
37 | Compound NOT metabolized | CC(C)NCC(O)COc1ccc(COCCOC(C)C)cc1.CC(C)NCC(O)COc1ccc(COCCOC(C)C)cc1.O=C(O)/C=C/C(=O)O (stereo not given) [BISOPROLOL FUMARATE]
38 | Compound NOT metabolized | CC(C)(C)NC[C@H](O)COc1ccccc1C1CCCC1.CC(C)(C)NC[C@H](O)COc1ccccc1C1CCCC1.O=S(=O)(O)O [PENBUTOLOL SULFATE]

Conditions: human gut metagenome, 24 h, 2 µM
Remark: another data set of the same source

Row | Bacterial Biotransformation | Compound
39 | Compound metabolized | CC(C)NCC(O)COc1ccc(COCCOC(C)C)cc1.CC(C)NCC(O)COc1ccc(COCCOC(C)C)cc1.O=C(O)/C=C/C(=O)O (stereo not given) [BISOPROLOL FUMARATE]
40 | Compound metabolized | CC(C)(C)NC[C@H](O)COc1ccccc1C1CCCC1.CC(C)(C)NC[C@H](O)COc1ccccc1C1CCCC1.O=S(=O)(O)O [PENBUTOLOL SULFATE]
